Like-named read-outs stand apart in the source and are kept apart here. No end group written: not given here.
Columns and labels:
[1] = system: NCTC clone 929 fibroblasts; assay: In vitro cytotoxicity on fibroblasts (resazurin); format: cell-based, murine; settings: NCTC929 cells, 2 × 10^4 cells per well, 48 hours 37°C 5% CO2, peptides 500-62.5 µM, absorbance 570 and 600 nm
Experimental: In these experiments, NCTC clone 929 fibroblasts were cultured in a 96-well plate with 180 µL of minimal essential medium (MEM) supplemented with 10% FBS, penicillin and streptomycin antibiotics. About 2 × 10^4 cells per well were cultured and incubated at 37°C for 48 hours in a 5% CO2 environment with different concentrations of synthetic peptides (500-62.5 µM). Then, 20 µL of a resazurin solution was added, reaching a final concentration of 2 mM. The plate was incubated again at 37°C for 4 hours, and absorbance was monitored at 570 and 600 nm using a Synergy H1 multi-mode spectrophotometer (BIOTEK). GraphPad Prism software determined the half-maximal cytotoxic concentration (CC50) (v.6.01). The CC50 of the reference drug benznidazole was also determined to finally determine the selectivity index

cruzain = target: T1, cruzain (Trypanosoma cruzi, UniProt P25779); assay: Inhibition of cruzain enzymatic (proteolytic) activity, casein substrate; format: biochemical; settings: cruzain 50 μM, peptide 500 to 62.5 μM, 1% casein substrate, Tris-HCl 0.1 M pH 8, 37°C, absorbance 280 nm, read-out: I50(µM) ± SD, inhibition of cruzain proteolytic activity
T1 construct: From 40 to 120 minutes, mature cruzain was obtained in a soluble and enzymatically active form; His tag (histidine tail); made in house; host or cells: E. coli BL21 DE3 (pET 21a (+) with the pro-cruzain gene)
T1 sequence (P25779 123-337): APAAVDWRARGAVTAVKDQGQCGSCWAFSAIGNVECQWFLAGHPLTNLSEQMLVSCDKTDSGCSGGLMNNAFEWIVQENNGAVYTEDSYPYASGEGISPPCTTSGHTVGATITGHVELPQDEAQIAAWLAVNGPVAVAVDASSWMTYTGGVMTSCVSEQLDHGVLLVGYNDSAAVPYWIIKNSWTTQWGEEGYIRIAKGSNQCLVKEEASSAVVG
Experimental: Cruzain at a final concentration of 50 μM was incubated for 30 minutes at 37°C with various concentrations of AsCystatin (50-6.25 μM). Subsequently, 1% casein substrate diluted in Tris-HCl 0.1 M, pH 8, was added. The mixture was incubated again for 30 minutes at 37°C, and the reaction was stopped by adding 250 μL of 20% Trichloroacetic Acid (TCA), followed by a 30-minute rest period at room temperature. Finally, the mixture was centrifuged at 10,000 × g for 15 minutes. Enzymatic activity inhibition was estimated by recording the absorbance of the supernatant at 280 nm using a microplate spectrophotometer (BioTek Eon). The concentration required to inhibit 50% of cruzain enzymatic activity was determined using GraphPad Prism 6.0 software.
The peptides designed, as mentioned in the previous section, were synthesized by AminoTech (São Paulo, Brazil). Subsequently, the ability of the synthetic peptides to inhibit cruzain enzymatic activity was assessed. For this procedure, different concentrations of each peptide (500 to 62.5 μM) were incubated with 50 μM cruzain, and the steps detailed in the section […] were carried out.

[2] = target: epimastigote forms of clone CL B5 of Trypanosoma cruzi; assay: In vitro trypanocidal activity on epimastigotes (CPRG, β-galactosidase); format: cell-based; settings: T. cruzi CL B5 lacZ epimastigotes, 2.5 × 10^5 parasites/mL, 72 hours at 28°C, peptides 500-62.5 µM, CPRG read-out at 590 nm
Experimental: To assess the trypanocidal activity of the synthetic peptides, epimastigote forms of clone CL B5 of Trypanosoma cruzi, transfected with the Escherichia coli β-galactosidase gene (lacZ), were used. The parasites were cultivated at 28°C in liver infusion tryptose (LIT) medium, supplemented with 10% fetal bovine serum (FBS) and the antibiotics penicillin and streptomycin. About 200 µL of epimastigotes at 2.5 × 10^5 parasites/mL concentration were plated in a 96-well plate. The parasites were incubated at 28°C for 72 hours with different concentrations of peptides (500-62.5 µM). Then, 50 µL of chlorophenol red-β-D-galactopyranoside (CPRG) solution was added, reaching a final concentration of 200 µM. The plate was incubated again at 37°C for 4 hours, and absorbance was monitored at 590 nm using a spectrophotometer (Synergy H1 multi-mode BIOTEK). Benznidazole was used as a positive control. The half maximal inhibitory concentration (IC50) was determined using GraphPad Prism (v.6.01) software.

[3] = read-out: IC50 (µM) ± SD, trypanocidal activity

| Substance | IC50 (µM) ± SD, cytotoxic activity [1] [µM] | IC50 (cruzain; SD) [µM] | IC50 ([2]; SD) [µM] | IC50 (cruzain) [µM] | IC50 [2, 3] [µM] |
| --- | --- | --- | --- | --- | --- |
| GGLQVVTGPW [Pep5] | > 500 | 220 ± 0.48 | 475.5 ± 1.65 | – | – |
| IPGGLSK [Pep1] | > 500 | – | – | > 500 | > 500 |
| KGGLQVVTGAPWK [Pep7] | > 500 | 388.5 ± 1.22 | 390.2 ± 2.1 | – | – |
| KGGLQVVTGPWK [Pep6] | > 500 | 384.6 ± 0.77 | – | – | > 500 |
| KIPGGQVVTGPWK [Pep8] | > 500 | 281.5 ± 2.19 | 471.3 ± 1.8 | – | – |
| KQVVTGK [Pep4, linear peptide derived from AsCystatin with lysine residues at each end] | > 500 | – | – | > 500 | > 500 |
| QSQVVTGAK [Pep3] | > 500 | – | – | > 500 | > 500 |
| QVVTG [Pep2] | > 500 | – | – | > 500 | > 500 |

— article PMC11832194, “Cystatin from Austrelaps superbus snake venom as a model for identifying potential inhibitors of Trypanosoma cruzi cruzain” (The Journal of Venomous Animals and Toxins Including …, 2025)
